Measured values from patent US8357655B2, “Wound healing peptides and methods of use thereof” (Tufts University, priority 2008, dated 2013).

Legend:
Assay type in all cases: cell-based
[1] = test system: capillary endothelial cells; test: in vitro wound healing assay, capillary endothelial cell migration; conditions: one and two hours post-injury; WHP 0.5 nM to 0.2 mM in DMEM with 1% bovine calf serum; vs control cultures (FIG. 1)
Description: In this assay, capillary endothelial cells were plated on tissue culture plastic and allowed to form a confluent monolayer. The monolayer was mechanically disrupted and non-adherent cells were removed, at which point the WHP was provided at a concentration within the range of sub-nanomolar (0.5 nM) to sub-millimolar (0.2 mM) in tissue culture media (DMEM with 1% bovine calf serum. Control cultures were incubated with serum alone, positive control test substances, e.g. basic fibroblast growth factor (bFGF viz, FGF2) and vascular endothelial growth factor (VEGF) (for capillary-derived endothelial cells); or heparin-binding epidermal-like growth factor (Hb-EGF) (for human skin derived keratinocytes). Other control cultures were incubated with either no peptide or a random peptide without wound healing or proliferative properties. The extent of endothelial cell migration in the WHP and control cultures was observationally determined at various time points following injury (e.g., thirty minutes, one hour, two hours, or more than two hours).

[2] = test system: human epidermal-derived keratinocytes; test: in vitro wound healing assay, keratinocyte post-injury motility; conditions: compared with HbEGF, growth factor known to be migration-inducing in keratinocytes (FIG. 2)
Description: Referring to FIG. 2, an in vitro wound healing assay was performed to compare the wound healing properties of two WHPs, SEQ ID NO: 3 and SEQ ID NO: 9, with a known potentiator of keratinocyte migration, heparin-binding EGF-like growth factor (HbEGF). In these experiments, confluent densities of human epidermal-derived keratinocytes were plated in vitro in defined media lacking WHPs or positive control substances. At time zero, all cultures are wounded mechanically and imaging of wounds was accomplished automatically using computer-assisted light microscope imaging. Cell cultures were injured mechanically by removing defined zones of living cells were then washed and test agents or control substances delivered. Cells recovering from injury were than quantifiably monitored using computer-assisted imaging and light microscopy. Post-injury motility was assessed using the migratory response of untreated injured cultures as a baseline for quantitative comparative analysis. Multiple experiments with multiple replicates are shown, standard deviation with error of the mean.

[3] = in vitro injury model, dose dependence; conditions: concentrations ranging from 1 to 1000 nM (FIG. 3)
Description: Referring to FIG. 3, the WHPs provided herein act in dose-dependent manner. A WHP, SEQ ID NO: 9, was provided in an in vitro injury model at concentrations ranging from 1 to 1000 nM.

endothelial cells = test: endothelial cell proliferation assay; conditions: peptide at 1 nM; control cultures in 5% BCS DMEM (FIG. 5)
Description: The WHPs provided herein induce endothelial cell proliferation. […] Endothelial cells were plated at subconfluent concentrations and allowed to attach, then new culture media was provided in the presence or absence of a WHP; control cultures were grown in 5% BCS DMEM.

[4] = test system: capillary endothelial cells; test: in vitro capillary morphogenesis (angiogenesis) assay; conditions: cells embedded in ECM-derived three-dimensional matrix, incubated twenty hours (FIG. 4)
Description: The WHPs provided herein are also useful in the promotion of capillary morphogenesis. […] Specifically, isolated capillary endothelial cells were embedded in an ECM-derived three-dimensional matrix that contained a WHP at a range of concentrations from the nanomolar (nM) to sub-millimolar (mM) (e.g., between 0.5 nM-0.2 mM) and incubated. […] In comparison, negative control cell populations (i.e., cells that were not exposed to a WHP but were exposed to serum containing media, which contains growth factors and other angiogenesis inducers) generally remained as individual cells during this timeframe at this population density.

Substance	endothelial cell migration into the wound site [1]	keratinocyte post-injury motility [2]	wound healing activity, dose dependence [3]	endothelial cell proliferation (endothelial cells)	formation of capillary tube like structures / in vitro angiogenesis [4]
DINECELSANL [SEQ ID NO: 9]	substantially greater migration into the wound site	equal or superior to the growth factor	dose-dependent	increase in endothelial cell proliferation	–
bFGF: basic fibroblast growth factor, positive control growth factor	–	–	–	–	able to promote in vitro angiogenesis to a lesser extent than populations treated with a WHP
DINECEIGAPAGEETEVTVEGLEPG [SEQ ID NO: 3]	–	equal or superior to the growth factor	–	increase in endothelial cell proliferation	–
